Measured values as given in article PMC7179183, “Design of Biphenyl-Substituted Diarylpyrimidines with a Cyanomethyl Linker as HIV-1 NNRTIs via a Molecular Hybridization Strategy” (Molecules, 2020).

Columns and labels:
[1] = system: E138K mutant HIV-1 strain; experiment: Anti-HIV-1 activity against E138K mutant strain in MT-4 cells; assay type: cell-based; conditions: MT-4 cells; read-out: EC50 E138K
WT HIV-1 RT = WT HIV-1 RT (Human immunodeficiency virus type 1 group M subtype B, UniProt P03366); experiment: Enzymatic assay against WT HIV-1 RT; conditions: read-out: IC50 WT HIV-1 RT polymerase activity
Method: The enzymatic assay against WT HIV-1 RT was conducted for most compounds (Table 2).

[2] = system: L100I mutant HIV-1 strain; experiment: Anti-HIV-1 activity against L100I mutant strain in MT-4 cells; assay type: cell-based; conditions: MT-4 cells; read-out: EC50 L100I
WT HIV-1 (strain IIIB) = experiment: microbe, parasite or virus in culture; assay type: cell-based; conditions: MT-4 cells; protection against virus-induced cytopathicity by 50%; mean of at least three experiments; read-out: EC50 HIV-1 IIIB
Method: (§1) The newly synthesized compounds were evaluated for their potency and cytotoxicity against the WT HIV-1 (strain IIIB) in MT-4 cells using the MTT method. The biological evaluation results are represented as EC50 values (anti-HIV-1 activity), CC50 values (cytotoxicity), and SI values (selectivity index, CC50/EC50 ratio).

[3] = system: K103N mutant HIV-1 strain; experiment: Anti-HIV-1 activity against K103N mutant strain in MT-4 cells; assay type: cell-based; conditions: MT-4 cells; read-out: EC50 K103N
[4] = system: Y188L mutant HIV-1 strain; experiment: Anti-HIV-1 activity against Y188L mutant strain in MT-4 cells; assay type: cell-based; conditions: MT-4 cells; read-out: EC50 Y188L
[5] = system: K103N + Y181C double RT mutant HIV-1 strain; experiment: Anti-HIV-1 activity against K103N + Y181C double mutant strain in MT-4 cells; assay type: cell-based; conditions: MT-4 cells; read-out: EC50 K103N + Y181C
MT-4 cells = experiment: Cytotoxicity in uninfected MT-4 cells, MTT method; assay type: cell-based; conditions: uninfected MT-4 cells; viability reduced by 50%
Method: as §1

[6] = system: Y181C mutant HIV-1 strain; experiment: Anti-HIV-1 activity against Y181C mutant strain in MT-4 cells; assay type: cell-based; conditions: MT-4 cells; read-out: EC50 Y181C
[7] = system: F227L + V106A double RT mutant HIV-1 strain; experiment: Anti-HIV-1 activity against F227L + V106A double mutant strain in MT-4 cells; assay type: cell-based; conditions: MT-4 cells; read-out: EC50 F227L + V106A

Row | Structure (SMILES) | EC50 [1] [µM] | IC50 (WT HIV-1 RT) [µM] | EC50 [2] [µM] | EC50 (WT HIV-1 (strain IIIB)) [µM] | EC50 [3] [µM] | EC50 [4] [µM] | EC50 [5] [µM] | CC50 (MT-4 cells) [µM] | EC50 [6] [µM] | EC50 [7] [µM]
1 | N#Cc1ccc(Nc2nccc(C(C#N)c3ccc(-c4ccc(C#N)cc4)cc3F)n2)cc1 (racemic) [Compound 10p, (±)-4′-(cyano(2-((4-cyanophenyl)amino)pyrimidin-4-yl)methyl)-3′-fluoro-[1,1′-biphenyl]-4-carbonitrile] | 0.17 ± 0.03 | 0.059 ± 0.034 | 1.21 ± 0.21 | 0.027 ± 0.015 | 0.9 ± 0.27 | 9.81 ± 1.3 | > 36.4 | 36.4 | 0.87 ± 0.23 | –
2 | COc1cccc(-c2ccc(C(C#N)c3ccnc(Nc4ccc(C#N)cc4)n3)c(F)c2)c1 (racemic) [Compound 10h, (±)-4-((4-(cyano(3-fluoro-3′-methoxy-[1,1′-biphenyl]-4-yl)methyl)pyrimidin-2-yl)amino)benzonitrile] | 6.16 ± 1.47 | 0.219 ± 0.171 | 8.57 ± 1.26 | 1.5 ± 0.24 | > 30.7 | > 30.7 | > 30.7 | 30.7 ± 2.09 | > 30.7 | > 30.7
3 | N#Cc1ccc(Nc2nccc(C(C#N)c3ccc(-c4cccc(F)c4)cc3F)n2)cc1 (racemic) [Compound 10k, (±)-4-((4-(cyano(3,3′-difluoro-[1,1′-biphenyl]-4-yl)methyl)pyrimidin-2-yl)amino)benzonitrile] | 3.36 ± 0.4 | 0.188 ± 0.172 | 9.29 ± 0.57 | 0.56 ± 0.19 | > 30.7 | > 30.7 | > 30.7 | 30.7 ± 1.79 | 9.15 ± 0.87 | > 30.7
4 | COc1ccc(-c2ccc(C(C#N)c3ccnc(Nc4ccc(C#N)cc4)n3)c(F)c2)cc1 (racemic) [Compound 10i, (±)-4-((4-(cyano(3-fluoro-4′-methoxy-[1,1′-biphenyl]-4-yl)methyl)pyrimidin-2-yl)amino)benzonitrile] | 5.51 ± 1.06 | – | 31.6 ± 7.35 | 0.51 ± 0.42 | 27 ± 3 | 50.1 ± 6.52 | > 183 | 183 | 8.57 ± 1.21 | 52.5
5 | Cc1ccc(-c2ccc(C(C#N)c3ccnc(Nc4ccc(C#N)cc4)n3)c(F)c2)cc1 (racemic) [Compound 10f, (±)-4-((4-(cyano(3-fluoro-4′-methyl-[1,1′-biphenyl]-4-yl)methyl)pyrimidin-2-yl)amino)benzonitrile] | 2.55 ± 0.17 | 0.093 ± 0.051 | 6.12 ± 1.62 | 0.43 ± 0.09 | 8.08 ± 2.74 | > 30.9 | > 30.9 | 30.9 ± 2.76 | 9.27 ± 1.14 | > 30.9
6 | N#Cc1ccc(Nc2nccc(C(C#N)c3ccc(-c4ccccc4Cl)cc3F)n2)cc1 (racemic) [Compound 10m, (±)-4-((4-((2′-chloro-3-fluoro-[1,1′-biphenyl]-4-yl)(cyano)methyl)pyrimidin-2-yl)amino)benzonitrile] | 2.43 ± 0.5 | 0.074 ± 0.024 | 5.61 ± 1.51 | 0.28 ± 0.04 | 5.34 ± 0.93 | > 22.5 | > 22.5 | 22.5 ± 4.7 | 4.53 ± 1.47 | > 22.5
7 | Cc1ccccc1-c1ccc(C(C#N)c2ccnc(Nc3ccc(C#N)cc3)n2)c(F)c1 (racemic) [Compound 10d, (±)-4-((4-(cyano(3-fluoro-2′-methyl-[1,1′-biphenyl]-4-yl)methyl)pyrimidin-2-yl)amino)benzonitrile] | 2.5 ± 0.33 | 0.074 ± 0.024 | 3.67 ± 0.54 | 0.43 ± 0.21 | 8.14 ± 1.82 | > 30.1 | > 30.1 | 30.1 ± 1.94 | 4.89 ± 1.07 | > 30.1
8 | N#Cc1ccc(Nc2nccc(C(C#N)c3ccc(-c4ccccc4)cc3F)n2)cc1 (racemic) [Compound 10c, (±)-4-((4-(cyano(3-fluoro-[1,1′-biphenyl]-4-yl)methyl)pyrimidin-2-yl)amino)benzonitrile] | 1.69 ± 0.17 | 0.062 ± 0.024 | ≥ 10.3 | 0.33 ± 0.07 | 10.3 ± 0.85 | > 23.8 | > 23.8 | 23.8 ± 4.48 | 6.37 ± 0.78 | > 23.8
9 | COc1ccccc1-c1ccc(C(C#N)c2ccnc(Nc3ccc(C#N)cc3)n2)c(F)c1 (racemic) [Compound 10g, (±)-4-((4-(cyano(3-fluoro-2′-methoxy-[1,1′-biphenyl]-4-yl)methyl)pyrimidin-2-yl)amino)benzonitrile] | 3.66 ± 0.19 | 0.233 ± 0.125 | 4.27 ± 0.46 | 0.61 ± 0.16 | 9.78 ± 1.6 | > 30 | > 30 | 30.1 ± 2.31 | 7.79 ± 1.67 | > 30
10 | N#Cc1ccc(Nc2nccc(C(C#N)c3ccc(-c4ccccc4F)cc3F)n2)cc1 (racemic) [Compound 10j, (±)-4-((4-(cyano(2′,3-difluoro-[1,1′-biphenyl]-4-yl)methyl)pyrimidin-2-yl)amino)benzonitrile] | 1.03 ± 0.17 | 0.058 ± 0.032 | 6.06 ± 2.46 | 0.21 ± 0.05 | 3.93 ± 0.65 | > 27.9 | > 27.9 | 27.9 ± 3.56 | 3.4 ± 0.48 | > 27.9
11 | N#Cc1ccc(Nc2nccc(C(C#N)c3ccc(-c4ccccc4)cc3)n2)cc1 (racemic) [Compound 10a, (±)-4-((4-([1,1′-biphenyl]-4-yl(cyano)methyl)pyrimidin-2-yl)amino)benzonitrile] | ≥ 12.6 | – | > 30.8 | 2.9 ± 1.89 | > 30.8 | > 30.8 | > 30.8 | 30.8 ± 8.57 | > 30.8 | > 30.8
12 | N#Cc1ccc(Nc2nccc(C(C#N)c3ccc(-c4ccc(F)cc4)cc3F)n2)cc1 (racemic) [Compound 10l, (±)-4-((4-(cyano(3,4′-difluoro-[1,1′-biphenyl]-4-yl)methyl)pyrimidin-2-yl)amino)benzonitrile] | 0.98 ± 0.13 | – | 6.9 ± 1.76 | 0.18 ± 0.16 | 6.87 ± 1.17 | > 25.6 | > 25.6 | 25.6 ± 3.58 | 5.1 ± 0.51 | > 25.6
13 | N#Cc1ccc(Nc2nccc(C(C#N)c3ccc(-c4cccc(Cl)c4)cc3F)n2)cc1 (racemic) [Compound 10n, (±)-4-((4-((3′-chloro-3-fluoro-[1,1′-biphenyl]-4-yl)(cyano)methyl)pyrimidin-2-yl)amino)benzonitrile] | 2.67 ± 0.21 | 0.171 ± 0.132 | 8.31 ± 1.2 | 0.39 ± 0.1 | 7.2 ± 0.89 | > 27.6 | > 27.6 | 27.6 ± 4.05 | 9.19 ± 2.05 | –
14 | N#Cc1ccc(Nc2nccc(C(C#N)c3ccc(-c4ccc(Cl)cc4)cc3F)n2)cc1 (racemic) [Compound 10o, (±)-4-((4-((4′-chloro-3-fluoro-[1,1′-biphenyl]-4-yl)(cyano)methyl)pyrimidin-2-yl)amino)benzonitrile] | 1.5 ± 0.28 | – | 5.28 ± 1.29 | 0.18 ± 0.14 | 7.32 ± 0.87 | > 27.5 | > 27.5 | 27.5 ± 7.3 | 7.49 ± 1.64 | > 27.5
